These results are taken from US5576296A, “Galanin antagonist” (priority 1991, dated 1996).

The subject of the experiment is scopolamine-induced release of ACh. As to the kind of experiment: Microdialysis: scopolamine-induced release of ACh in vivo from rat ventral hippocampus. As to conditions: scopolamine 0.3 mg/kg s.c. alone; peak (second) 20 min fraction; n=2. Here is the method: 2) Galanin inhibits acetylcholine release, measured according to Fisone G., et al (Proc. Natl. Acad. Sci. vol 84, 1987, 7339-7343). By using substantially the same procedure as the cited Fisone G., et al, a peptide according to the invention, M15, is now shown to counteract the inhibitory effects of galanin on the scopolamine-induced release of acetylcholine in vivo.
Surgery and basic methodology. Experiments were carried out with female CD-COBS (Charles River, Como, Italy) rats, weighing 200-260 g. Animals were anesthetized with equitensin (1% pentobarbital, 4% chloral hydrate). […] The microdialysis probe extended 3 mm beyond the end of the guide cannula; it was perfused at a constant rate of 2 μl (min with Ringer's solution (NaCl, 147 mM; CaCl2, 2.2 mM and KCl, 4.0 mM), containing 10 μM physostigmine sulfate and adjusted to pH 7.0 with NaOH. The initial 40 min perfusate was discarded. Thereafter, perfusates were collected every 20 min during a total perfusion period of 260 min. At the end of the collection period, the samples were immediately frozen on solid CO2 and lyophilized. Acetylcholine (Ach) content was quantified by a specific radioenzymatic method described in detail by Consolo S., et al. (J. Neurochem. […]

Turning to `CN1[C@@H]2C[C@@H](OC(=O)[C@H](CO)c3ccccc3)C[C@H]1[C@@H]1O[C@@H]12` [Scopolamine], the ACh release is 13.1 pmol.
